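1) Cells in 96-well plates. 2) Compound, 48 h, 5 concentrations. 3) Linear interpolation between surrounding doses. 4) Unreached endpoint = highest concentration. Definition used: TGI = concentration required for complete inhibition of growth.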
Experiments:
Assay in all cases: NCI-60 cell line screen, 48 h
U251 CNS = test system: U251 CNS
HCT-15 colon = test system: HCT-15 colon
HT29 colon = test system: HT29 colon
NCI-H460 lung = test system: NCI-H460 lung
OVCAR-5 ovarian = test system: OVCAR-5 ovarian
COLO 205 colon = test system: COLO 205 colon
UACC-62 melanoma = test system: UACC-62 melanoma
HL-60(TB) leukemia = test system: HL-60(TB) leukemia
M14 melanoma = test system: M14 melanoma
SF-268 CNS = test system: SF-268 CNS
K-562 leukemia = test system: K-562 leukemia
OVCAR-8 ovarian = test system: OVCAR-8 ovarian
TK-10 renal = test system: TK-10 renal
SF-539 CNS = test system: SF-539 CNS
MDA-MB-231 breast = test system: MDA-MB-231 breast
PC-3 prostate = test system: PC-3 prostate
SK-MEL-2 melanoma = test system: SK-MEL-2 melanoma
RXF 393 renal = test system: RXF 393 renal
MCF7 breast = test system: MCF7 breast
BT-549 breast = test system: BT-549 breast

| Structure (SMILES) | TGI (U251 CNS) [µM] | TGI (HCT-15 colon) [µM] | TGI (HT29 colon) [µM] | TGI (NCI-H460 lung) [µM] | TGI (OVCAR-5 ovarian) [µM] | TGI (COLO 205 colon) [µM] | TGI (UACC-62 melanoma) [µM] | TGI (HL-60(TB) leukemia) [µM] | TGI (M14 melanoma) [µM] | TGI (SF-268 CNS) [µM] | TGI (K-562 leukemia) [µM] | TGI (OVCAR-8 ovarian) [µM] | TGI (TK-10 renal) [µM] | TGI (SF-539 CNS) [µM] | TGI (MDA-MB-231 breast) [µM] | TGI (PC-3 prostate) [µM] | TGI (SK-MEL-2 melanoma) [µM] | TGI (RXF 393 renal) [µM] | TGI (MCF7 breast) [µM] | TGI (BT-549 breast) [µM] |
| --- | --- | --- | --- | --- | --- | --- | --- | --- | --- | --- | --- | --- | --- | --- | --- | --- | --- | --- | --- | --- |
| CCCCCCCCCCCCCCCCCC(=O)O[C@H](COC(=O)CCCCCCCCCCC)COC(=O)CCCCCCCCCCCCCCC | > 100 | > 100 | > 100 | > 100 | > 100 | > 100 | > 100 | > 100 | > 100 | > 100 | > 100 | > 100 | > 100 |  |  |  |  |  |  |  |
| COC(=O)[C@@H]1CCCN1CCN1CCC[C@H]1C(=O)OC | > 100 | > 100 | > 100 | > 100 | > 100 | > 100 | > 100 |  | > 100 | > 100 | > 100 | > 100 | > 100 | > 100 | > 100 | > 100 | > 100 | > 100 | > 100 |  |
| CC(=O)OC1CC2C(C)(C)OC(=O)CC(OC(C)=O)[C@]2(C)C2CCC3(C)C(=CCC3[C@H]3COC(=O)C3)[C@]12C (stereo partly specified) | > 100 | > 100 | > 100 | > 100 | > 100 | > 100 | > 100 | > 100 | > 100 | > 100 | > 100 | > 100 | > 100 | > 100 |  |  | > 100 | > 100 |  |  |
| O=C1Nc2c(ccc(Cl)c2I)C1=O | 56.9 | 38.6 | > 100 | 31.8 | 34.3 | 30.8 | 33.8 | 48.1 | 29.4 | 39.4 | 73.2 | 76.7 | 99.2 |  |  |  | 27.7 | 31.3 |  |  |
| COc1ccc(O)cc1 | > 100 | 98.4 | > 100 | > 100 | > 100 | > 100 | 87.1 | > 100 | > 100 | > 100 | > 100 | > 100 | > 100 | > 100 |  |  | > 100 | > 100 |  |  |
| CCCC(C)NC1=C(NC(C)=O)C(=O)c2ccccc2C1=O (stereo unspecified) | > 100 | > 100 | > 100 | > 100 |  | > 100 | > 100 | > 100 | > 100 | > 100 | > 100 | > 100 | > 100 | > 100 |  |  | > 100 | > 100 |  |  |
| O=C1c2ccccc2CCCCCCCCCCC12OCCCO2 | > 100 | 92.3 | 42.9 | > 100 | 66.8 | 38.1 | > 100 | 40.1 | > 100 | 96.7 | > 100 | > 100 | > 100 | > 100 |  |  | 68.3 | 33.7 |  |  |
| C1CCC2C(C1)CCCC2NC1=NCCO1 (stereo unspecified) | > 100 | > 100 | > 100 | > 100 | > 100 | > 100 | > 100 | > 100 | > 100 | > 100 | > 100 | > 100 | > 100 | > 100 | > 100 | > 100 | > 100 | > 100 | > 100 |  |
| O=C1OC2(OC2c2ccccc2)c2ccccc21 (stereo unspecified) | > 100 | > 100 | > 100 | > 100 | > 100 | > 100 | > 100 | > 100 | > 100 | > 100 | > 100 | > 100 | > 100 | > 100 |  |  | > 100 | > 100 |  |  |
| NC1=NS(=O)(=O)Nc2nc(-c3ccc(Cl)cc3)c(-c3ccc(Cl)cc3)nc21 | > 100 |  | > 100 | > 100 | > 100 | > 100 | > 100 | > 100 | > 100 | > 100 | > 100 | > 100 | > 100 | > 100 |  |  |  | > 100 |  |  |
| CCc1ccc2oc(-c3cc(O)c(-c4nc5cc(CC)ccc5o4)cc3O)nc2c1 | > 100 | > 100 |  | > 100 | > 100 | > 100 | > 100 | > 100 | > 100 | > 100 | > 100 | > 100 | > 100 | > 100 | > 100 | > 100 | > 100 |  | > 100 |  |
| O=C(Cc1ccccc1)NN1C(=O)C(Cl)C1c1ccc(O)cc1 (stereo unspecified) | > 100 | > 100 | > 100 | > 100 | > 100 | > 100 | > 100 | > 100 | > 100 | > 100 | > 100 | > 100 | > 100 |  |  |  | > 100 | > 100 |  |  |
| NC1=NS(=O)(=O)Nc2nc(-c3ccc([N+](=O)[O-])o3)[nH]c21 | 31.7 | 44.1 | 42.4 | 44 | 35 |  | 30 | 4.93 | 28.4 | 38.7 | 22.9 | 89.3 | 33 | 31.6 |  |  | 30.7 | 25.5 |  |  |
| O=C1c2ccc3c4ccccc4n(Cc4ccccc4)c3c2C(=O)N1c1ccccc1 | 29.3 | 22.7 | 39.2 | > 100 | 33 | 11.1 | 31.7 | > 44.7 | 27.9 | 40.8 | 34.2 | 31.9 | 29 | 31.1 |  |  | 46.5 | 26.7 |  |  |
| NP(=O)(OCC1=CC(=O)c2ccccc2C1=O)N(CCBr)CCBr (stereo unspecified) | 28.7 | 20.1 | 34.9 | 16 | 45.1 | > 21.1 | 5.3 | > 100 |  | 26.7 | > 100 | 37.2 | 33.1 | 18.7 | 27.2 | 46 | 25.3 | 21.8 | > 40.9 |  |
| Cc1ccc2c(c1)[nH]c1cc(C(F)(F)F)ccc1[p+]2=O (stereo unspecified) | > 100 | > 100 | > 100 | > 100 | > 100 | 31.5 | 54.9 | 56.2 | > 100 | > 100 | 66.4 | > 100 | > 100 | > 100 | 49.1 | 73.5 | > 100 | > 100 | > 100 |  |
| CC1=COC(C)(C=C(C#N)C#N)CC1 (stereo unspecified) | > 100 |  | > 100 | > 100 | > 100 | > 100 | > 100 | 50.1 | > 100 | > 100 | > 100 | > 100 | > 100 | 51.1 | > 100 |  |  | > 100 | > 100 |  |
| CN1NC(=Nc2ccccc2)Sc2c1cnn(-c1ccccc1)c2=O | > 100 | > 100 | > 100 | > 100 |  | > 100 | > 100 | > 100 | > 100 |  | > 100 | > 100 | > 100 | > 100 |  |  | > 100 | > 100 |  |  |
| CC(C)C(=O)/C=C/c1ccc(Br)cc1 | 22.9 |  | 31.6 | 30.1 | 27.5 | 56.1 | 28 | 41.2 | 32.4 | 48.4 | > 100 | 62.9 | 32.3 | 35.5 |  |  | 29.7 | 36 |  |  |
| CC(=O)Nc1cc2c(s1)CCC1CC(=O)NN=C21 (stereo unspecified) | > 100 | > 100 | > 100 | > 100 | > 100 | > 100 | > 100 | > 100 | > 100 | > 100 | > 100 | > 100 | > 100 | > 100 |  |  | > 100 | > 100 |  |  |
| N#C/C(=C\n1ccc(=O)[nH]c1=S)C(N)=O | > 100 | > 100 | > 100 | > 100 | > 100 | > 100 | > 100 | > 100 | > 100 | > 100 | > 100 | > 100 |  | > 100 | > 100 | > 100 | > 100 | > 100 | > 100 |  |
| O=C1NC(N/N=C/C(O)C(O)C(O)CO)=N/C1=C\c1ccco1 (stereo unspecified) | > 100 | > 100 | > 100 | > 100 | > 100 | > 100 | > 100 | > 100 | > 100 | > 100 | > 100 | > 100 | > 100 | > 100 | > 100 |  |  | > 100 | > 100 | > 100 |
| O=C1c2ccccc2C(=O)N1Cc1ccccc1-c1c2nc(c(-c3ccccc3CN3C(=O)c4ccccc4C3=O)c3ccc([nH]3)c(-c3ccccc3CN3C(=O)c4ccccc4C3=O)c3nc(c(-c4ccccc4CN4C(=O)c5ccccc5C4=O)c4ccc1[nH]4)C=C3)C=C2 | > 100 | > 100 | > 100 | > 100 | > 100 | > 100 | > 100 | > 100 | > 100 | > 100 | > 100 | > 100 | > 100 | > 100 |  |  | > 100 | > 100 |  |  |
| CCCCCC(=O)NC(=S)Nc1nn[nH]n1 | > 100 | > 100 |  | > 100 | > 100 | > 100 | > 100 | > 100 | > 100 | > 100 | > 100 |  | > 100 | > 100 | > 100 | > 100 | > 100 | > 100 | > 100 |  |
| O=C(CSc1nnc(Cc2ccccc2)o1)Nc1ccc([N+](=O)[O-])cc1 | > 100 | > 100 | > 100 | > 100 | > 100 | > 100 | > 100 | > 100 | > 100 | > 100 | > 100 | > 100 | > 100 | > 100 |  |  | > 100 | > 100 |  |  |
| COc1cc2cccc(N=Cc3cccc(OC)c3OC(C)C)c2cc1OC | 49.9 |  | 50.2 | > 100 | > 100 | > 100 | 45.6 |  | 35.9 | 91.4 | 89 | 53.1 | 59 |  |  |  | 48.6 |  |  |  |
| COC(=O)N/N=C(\C)C(CN1CCCCC1)C(C1=C(O)c2ccccc2OC1)c1ccccc1 (stereo unspecified) | > 100 | > 100 | > 100 | > 100 | > 100 | > 100 | > 100 | > 100 | > 100 | > 100 | > 100 | > 100 | > 100 | > 100 |  |  | > 100 | > 100 |  |  |
| c1cc2nnnn2nc1N1CCCC1 | > 100 | > 100 | > 100 | > 100 | > 100 | > 100 | > 100 | > 100 | > 100 | > 100 | > 100 | > 100 | > 100 | > 100 | > 100 | > 100 | > 100 | > 100 | > 100 |  |

— PubChem BioAssay (NCI)
